Source: US12673052B2, “Combinations for the treatment of cancer” (Exelixis, Inc., priority 2020, dated 2026)

Key:
[1] = Hepatocyte stability assay; format: in vitro ADME, rat; settings: hepatocytes
Protocol: The mean plasma t1/2, z values were approximately 9 hours in rats and 4 hours in dogs. Interspecies scaling based on body weight to predict PK parameters in humans could not be performed because dogs (larger species) cleared Compound 1 faster than rats (smaller species). Therefore, the human PK was projected based on one species (rat). […] This apparent clearance value (CL/F) was used to predict steady-state exposure (AUC and average plasma concentration [Cavg]) in humans for the proposed first-in-human (FIH) starting dose for Study Compound 1-001.
(§1) In the liver microsomal stability assay, CLint was 0.601 mL/min/g liver in mouse, 0.563 mL/min/g liver in rat, 0.315 mL/min/g liver in dog, 0.734 mL/min/g liver in monkey, and 0.639 mL/min/g liver in human. In the hepatocyte stability assay, Compound 1 CLint was 0.373 mL/min/g liver in mouse, 0.285 mL/min/g liver in rat, 1.08 mL/min/g liver in dog, 0.533 mL/min/g liver in monkey, and 0.317 mL/min/g liver in human.

[2] = molecular target: MET (Homo sapiens, UniProt P08581); assay: In vivo target modulation: MET phosphorylation by Western blot in NCI-H441 xenografts; set-up: endogenous in cells; host or cells: NCI-H441 human tumour xenografts in athymic nude mice; species or system athymic nude mice; settings: for Compound 1 Plasma Exposure: qd × 14, 4 hours after last dose on Day 14
MET, sequence (P08581 25-1390): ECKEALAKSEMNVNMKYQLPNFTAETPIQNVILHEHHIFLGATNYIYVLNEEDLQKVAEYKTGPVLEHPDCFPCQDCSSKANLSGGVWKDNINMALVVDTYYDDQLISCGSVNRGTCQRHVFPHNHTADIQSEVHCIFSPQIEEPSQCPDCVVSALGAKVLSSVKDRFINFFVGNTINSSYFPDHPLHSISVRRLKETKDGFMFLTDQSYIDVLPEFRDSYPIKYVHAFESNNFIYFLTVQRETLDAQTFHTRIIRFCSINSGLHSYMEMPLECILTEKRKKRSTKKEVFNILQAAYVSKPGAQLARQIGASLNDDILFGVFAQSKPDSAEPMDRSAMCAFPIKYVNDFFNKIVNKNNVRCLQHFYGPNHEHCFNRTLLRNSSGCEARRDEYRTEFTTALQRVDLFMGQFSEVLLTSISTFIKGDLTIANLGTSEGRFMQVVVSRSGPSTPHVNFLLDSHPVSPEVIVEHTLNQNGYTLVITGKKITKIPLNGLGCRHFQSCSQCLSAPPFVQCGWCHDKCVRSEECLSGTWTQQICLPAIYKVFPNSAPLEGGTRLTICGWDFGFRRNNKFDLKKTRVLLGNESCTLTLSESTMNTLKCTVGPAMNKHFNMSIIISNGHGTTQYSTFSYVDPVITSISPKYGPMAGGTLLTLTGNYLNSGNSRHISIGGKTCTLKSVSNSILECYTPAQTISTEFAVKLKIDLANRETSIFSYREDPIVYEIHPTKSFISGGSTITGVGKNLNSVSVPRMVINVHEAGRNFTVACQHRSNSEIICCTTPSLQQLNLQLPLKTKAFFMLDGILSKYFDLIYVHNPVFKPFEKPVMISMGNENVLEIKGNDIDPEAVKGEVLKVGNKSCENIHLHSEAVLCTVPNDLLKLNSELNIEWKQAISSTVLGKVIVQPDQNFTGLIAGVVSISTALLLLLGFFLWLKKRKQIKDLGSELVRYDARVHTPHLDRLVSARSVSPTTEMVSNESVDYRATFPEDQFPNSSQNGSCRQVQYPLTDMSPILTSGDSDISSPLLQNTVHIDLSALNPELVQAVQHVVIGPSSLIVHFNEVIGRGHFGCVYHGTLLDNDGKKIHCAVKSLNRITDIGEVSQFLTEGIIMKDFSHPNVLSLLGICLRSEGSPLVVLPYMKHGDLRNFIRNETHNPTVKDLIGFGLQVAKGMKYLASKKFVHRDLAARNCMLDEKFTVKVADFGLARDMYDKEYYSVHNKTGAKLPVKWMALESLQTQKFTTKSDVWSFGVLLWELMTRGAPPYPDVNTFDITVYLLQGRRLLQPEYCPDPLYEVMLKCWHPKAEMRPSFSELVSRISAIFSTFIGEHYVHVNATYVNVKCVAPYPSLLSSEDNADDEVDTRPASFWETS
Protocol: Three human tumor cell lines, NCI-H441, MDA-MB-231, and SNU-5, were selected for use in tumor xenograft studies using athymic nude, NSG and CB.17 SCID mice, respectively. Pharmacodynamic modulation of MET phosphorylation was also measured in the NCI-H441 and SNU-5 xenografts. Tumor-bearing mice were orally dosed once-daily for 14 days (qd×14), and the tumors were resected and processed for MET phosphorylation analysis by Western blot. […]

[3] = In vitro plasma protein binding; format: in vitro ADME; settings: 0.2 and 1 μM
Protocol: (§2) Plasma PK of Compound 1 was characterized in rats and beagle dogs. Toxicokinetic (TK) evaluations of oral Compound 1 were evaluated in repeat-dose studies in rats and dogs. Plasma protein binding was determined in mouse, rat, dog, monkey, and human plasma in vitro. Biotransformation and metabolite profiling of Compound 1 were investigated in vitro using mouse, rat, dog, monkey, and human liver microsomal fractions and hepatocytes and in vivo in rats and dogs. P-glycoprotein (P-gp) and breast cancer resistance protein (BCRP) transporter interaction studies, in vitro experiments evaluating cytochrome P450 (CYP) induction and inhibition by Compound 1, and CYP and glucuronosyltransferase (UGT) substrate specificity studies of Compound 1 were also performed.
(§3) Compound 1 (10 μM) was 97.2 and 97.5% protein bound in monkey and human plasma, respectively.

[4] = In vitro plasma protein binding; format: in vitro ADME, human
Protocol: as §2, §3

[5] = Hepatocyte stability assay; format: in vitro ADME, mouse; settings: hepatocytes
Protocol: as §1

[6] = NCI-H441, mouse, po, read-out: p-MET Inhibition %

Question: For `CNC(=O)c1cc2c(Oc3ccc(NC(=O)C4(C(=O)Nc5ccc(F)cc5)CC4)cc3)ccnc2cc1OC` [Compound 1, 1-N′-(4-Fluorophenvl)-1-N-[4-[7-methoxy-6-(methylcarbamovl)quinolin-4-yl]oxyphenyl]cyclopropane-1,1-dicarboxamide], which CLint [1] is on record?
Answer: Its CLint is 0.285 mL/min/g liver.

Question: What about the “Compound 1 Plasma Exposure” value ([2]; 3 mg/kg) of the same compound?
Answer: The value was 2.44 µM.

Question: And the “Compound 1 Plasma Exposure” value ([2]; 10 mg/kg)?
Answer: The value was 9.71 µM.

Question: What about the inhibition at 3 mg/kg [2, 6] of the same compound?
Answer: The inhibition at 3 mg/kg was 60%.

Question: And the inhibition at 10 mg/kg [2, 6]?
Answer: Its inhibition at 10 mg/kg is 82%.

Question: What about the fraction unbound ([3]; dog) of the same compound?
Answer: Its fraction unbound is under 0.01.

Question: And the fraction unbound ([3]; mouse)?
Answer: Its fraction unbound is under 0.01.

Question: And the fraction unbound ([3]; rat)?
Answer: The fraction unbound was under 0.01.

Question: And the protein bound ([4]; 10 μM)?
Answer: The protein bound was 97.5%.

Question: And the fraction unbound ([4]; human, plasma, 0.2 and 1 μM)?
Answer: Its fraction unbound is under 0.01.

Question: And the CLint [5]?
Answer: Its CLint is 0.373 mL/min/g liver.
